From paper PMC7253723, “Chain-End Modifications and Sequence Arrangements of Antimicrobial Peptoids for Mediating Activity and Nano-Assembly” (Frontiers in Chemistry, 2020)
Read-outs that look alike come from different tables or passages of the source. Square brackets hold non-standard residues; d marks the D form. Peptide text beside a SMILES is read from it. * marks the point of attachment. N(1-naphthylmethyl)Gly = O=C(O)CNCc1cccc2ccccc12; N(4-MeBn)Gly = Cc1ccc(CNCC(=O)O)cc1; Nspe = C[C@H](NCC(=O)O)c1ccccc1; Nonanoyl = CCCCCCCCC(=O)*; AEEA = NCCOCCOCC(=O)O; NBuGly = CCCCNCC(=O)O; Nlys = NCCCCNCC(=O)O

Columns and labels:
[1] = test system: Pseudomonas aeruginosa (PA01); type: cell-based
Method: (§1) Technical triplicates (n = 3) or more of samples at each concentration were analyzed.

[2] = test system: Escherichia coli (ATCC 25922); type: cell-based
Method: as §1

[3] = test system: Staphylococcus aureus (NCTC 4135); type: cell-based
Method: as §1

[4] = Critical aggregation concentration (CAC) Nile red fluorescence assay; type: physicochemical; details: Nile red fluorescence (~10 nM NR in water), lipopeptoids 2.5 × 10^-2 to 1 wt.%, excitation 552 nm, peak around 610 nm, room temperature; inflection in emission intensity
Method: Nile red (NR) fluorescence was used to measure critical aggregation concentration (CAC) for the synthesized lipopeptoids. Lipopeptoids were dissolved at 2.5 × 10^−2 to 1 wt.% in a dilute solution of Nile red (0.25 μg/100 mL, i.e. ~10 nM concentration) prepared in water. NR was excited at 552 nm and emission was recorded at room temperature in the range 550–750 nm using a 10.0 × 5.0 mm^2 quartz cell (Jasco spectrofluorimeter FP-6500). The intensity of the peak centered around 610 nm is shown in the data presented in Section results and discussion.
We first examined with a CAC assay whether coupling a hydrophobic tail to AMPMs and inserting the kk and EG2 components is a viable design for generating self-assembling lipopeptoids. The CAC measures the concentration above which hydrophobic pockets (e.g., lipophilic cores of micelles) are formed, and lower CACs indicate higher propensities of self-assembly. In our experiments, the CAC is indicated by an inflection in the increase in emission intensity of a lipophilic fluorophore tracer (Nile Red) that emits more strongly when partitioned into hydrophobic lower dielectric environments (see Figure S6 for an example analysis).

[5] = PA01, MH broth microdilution (CLSI M07-A10), ~5 × 10^5 CFU/mL, overnight 37°C, OD 600 nm, MIC = concentration with OD halfway between minimum and maximum, sigmoidal fit ± SD, n = 3 or more, maximum tested 100 μM
[6] = MH broth microdilution (CLSI M07-A10), ~5 × 10^5 CFU/mL, overnight 37°C, OD 600 nm, MIC = concentration with OD halfway between minimum and maximum, sigmoidal fit ± SD, n = 3 or more, maximum tested 100 μM

Compound | Antimicrobial activity (MIC) P. aeruginosa [1, 5] [µM] | Antimicrobial activity (MIC) E. coli [2, 6] [µM] | Antimicrobial activity (MIC) S. aureus [3, 6] [µM] | CAC [4] [µM] | Antimicrobial activity (MIC) P. aeruginosa [1] [µM] | Antimicrobial activity (MIC) E. coli [2] [µM] | Antimicrobial activity (MIC) S. aureus [3] [µM]
CCCCCCCCC(=O)NCCOCCOCC(=O)N(CC(=O)N(CC(=O)N(CC(=O)N(CCCC)CC(=O)N(CCCCN)CC(=O)N(CCCCN)CC(=O)N(CCCCN)CC(=O)N(CCCCN)CC(N)=O)Cc1cccc2ccccc12)Cc1ccc(C)cc1)Cc1cccc2ccccc12 [C8-EG2-4k] ({Nonanoyl-AEEA}-[N(1-naphthylmethyl)Gly][N(4-MeBn)Gly][N(1-naphthylmethyl)Gly][NBuGly][Nlys][Nlys][Nlys][Nlys]-NH2) | 16 ± 2 | 17 ± 1 | 18 ± 3 | 2500 ± 350 | – | – | –
CCCCCCCCC(=O)NCCOCCOCC(=O)N(CC(=O)N(CC(=O)N(CC(=O)N(CCCC)CC(=O)N(CCCCN)CC(=O)N(CCCCN)CC(=O)N(CCCCN)CC(=O)N(CCCCN)CC(=O)N(CCCCN)CC(N)=O)Cc1cccc2ccccc12)Cc1ccc(C)cc1)Cc1cccc2ccccc12 [C8-EG2-5k] ({Nonanoyl-AEEA}-[N(1-naphthylmethyl)Gly][N(4-MeBn)Gly][N(1-naphthylmethyl)Gly][NBuGly][Nlys][Nlys][Nlys][Nlys][Nlys]-NH2) | – | – | – | 1600 ± 390 | 41 ± 2 | 74 ± 4 | 8 ± 0.3
CCCCCCCCC(=O)NCCOCCOCC(=O)N(CCCCN)CC(=O)N(CC(=O)N(CC(=O)N(CCCCN)CC(=O)N(CC(=O)N(CC(=O)N(CCCCN)CC(=O)N(CCCCN)CC(N)=O)[C@@H](C)c1ccccc1)[C@@H](C)c1ccccc1)[C@@H](C)c1ccccc1)[C@@H](C)c1ccccc1 [C8-EG2-(kss)2-kk] ({Nonanoyl-AEEA}-[Nlys][Nspe][Nspe][Nlys][Nspe][Nspe][Nlys][Nlys]-NH2) | 13 ± 3 | 18 ± 3 | 9 ± 1 | 200 ± 37 | – | – | –
CCCCCCCCC(=O)NCCOCCOCC(=O)N(CCCCN)CC(=O)N(CC(=O)N(CC(=O)N(CCCCN)CC(=O)N(CC(=O)N(CC(=O)N(CCCCN)CC(=O)N(CC(=O)N(CC(=O)N(CCCCN)CC(=O)N(CCCCN)CC(N)=O)[C@@H](C)c1ccccc1)[C@@H](C)c1ccccc1)[C@@H](C)c1ccccc1)[C@@H](C)c1ccccc1)[C@@H](C)c1ccccc1)[C@@H](C)c1ccccc1 [C8-EG2-(kss)3-kk] ({Nonanoyl-AEEA}-[Nlys][Nspe][Nspe][Nlys][Nspe][Nspe][Nlys][Nspe][Nspe][Nlys][Nlys]-NH2) | 6 ± 2 | 2 ± 0.3 | 3 ± 1 | 270 ± 30 | – | – | –
CCCCCCCCC(=O)NCCOCCOCC(=O)N(CC(=O)N(CCCCN)CC(=O)N(CC(=O)N(CCCCN)CC(=O)N(CC(=O)N(CCCCN)CC(=O)N(CCCC)CC(=O)N(CCCCN)CC(N)=O)Cc1cccc2ccccc12)Cc1ccc(C)cc1)Cc1cccc2ccccc12 [C8-EG2-kykbk] ({Nonanoyl-AEEA}-[N(1-naphthylmethyl)Gly][Nlys][N(4-MeBn)Gly][Nlys][N(1-naphthylmethyl)Gly][Nlys][NBuGly][Nlys]-NH2) | 15 ± 3 | 11 ± 4 | 2 ± 0.2 | 1900 ± 200 | – | – | –
CCCCN(CC(=O)N(CCCCN)CC(N)=O)C(=O)CN(CCCCN)C(=O)CN(Cc1cccc2ccccc12)C(=O)CN(CCCCN)C(=O)CN(Cc1ccc(C)cc1)C(=O)CN(CCCCN)C(=O)CNCc1cccc2ccccc12 [Kykbk, reference compound] (H-[N(1-naphthylmethyl)Gly][Nlys][N(4-MeBn)Gly][Nlys][N(1-naphthylmethyl)Gly][Nlys][NBuGly][Nlys]-NH2) | – | – | – | – | 20 ± 1 | 15 ± 1 | 9 ± 0.4
